SMILES strings stand for the structures.

The assay addresses T1, Type-2 angiotensin II receptor (Homo sapiens, UniProt P50052).
T1 sequence (P50052 whole entry): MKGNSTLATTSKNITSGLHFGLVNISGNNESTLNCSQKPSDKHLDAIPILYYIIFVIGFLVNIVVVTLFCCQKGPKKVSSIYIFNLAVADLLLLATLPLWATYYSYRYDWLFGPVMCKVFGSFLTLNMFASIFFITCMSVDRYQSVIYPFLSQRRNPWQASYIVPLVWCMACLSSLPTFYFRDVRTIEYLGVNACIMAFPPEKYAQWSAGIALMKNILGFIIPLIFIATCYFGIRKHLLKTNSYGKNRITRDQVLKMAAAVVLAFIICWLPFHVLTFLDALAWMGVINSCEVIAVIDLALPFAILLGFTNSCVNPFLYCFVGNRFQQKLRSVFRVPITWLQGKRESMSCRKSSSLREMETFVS
As to the kind of experiment: Receptor Binding Assay: 120 μL membrane (5 mg protein/well) was incubated with 15 μL of [125I]-CGP42112A and 15 μL of compound at RT for 1.5 hrs.The binding reaction was stopped by rapid filtration through Unifilter GF/C plates (presoaked in 0.3% (v:v) BSA).Plate was washed three times with ice cold wash buffer.The filtration plates were dried at 37° C. overnight.50 μL of scintillation cocktail was added to each well.Radioactivity was determined using MicroBetaTriluxmicroplate scintillation counter.
As usually defined, the IC50 is the concentration that inhibits the measured activity by half. Take `O=C(O)[C@@H]1C[C@H](OCC#Cc2ccc(F)cc2)CCN1C(=O)C(c1ccccc1)c1ccccc1`: the IC50 worked out at 228 nM. As to `O=C(O)[C@@H]1C[C@H](OCc2ccccc2)CCN1C(=O)C(c1ccccc1)c1ccccc1`, the IC50 was 76.7 nM. For `CC(C)C#CCN(C)[C@@H]1CCN(C(=O)C(c2ccccc2)c2ccccc2)[C@H](C(=O)O)C1` the value was 153 nM; for `CC(C)C#CCN(C)[C@H]1CCN(C(=O)C(c2ccccc2)c2ccccc2)[C@H](C(=O)O)C1`, 354 nM.

The record behind these values is ChEMBL document CHEMBL5726136, “Heterocyclic compounds and methods for their use” (2017).
